Data on nine molecules can be found in patent US9994518B2, “Alpha-7 nicotinic acetylcholine receptor modulators and uses thereof” (MERCK SHARP & DOHME CORP., priority 2014, dated 2018).

Where only a bound is given, the exact number is not on record here.

Series [1] deals with T1, α7 nAChR (rat α7/CHO cells) (Rattus norvegicus, UniProt Q05941).
T1 construct: expressed in transfected cells; host or cells: CHO cells (α7/CHO)
As to the kind of experiment: Evaluation of modulators of α7 nAChRs using the IonFlux HT automated patch clamp system (potentiation of EC20 ACh-evoked currents). It is filed as cell-based. The conditions noted are these: percent potentiation of ACh (EC20, approx. 60 μM) response in α7/CHO cells; 6-point dose response 0.03-10 μM; whole cell patch clamp. The method, then:
Evaluation of Modulators of α7 nAChRs Using the IonFlux^HT Automated Patch Clamp System
Acetylcholine was freshly prepared for each plate run and used at an EC20 concentration (approximately 60 μM for rat α7/CHO) to induce α7 nAChR currents on the IonFlux^HT. To prepare the ACh solution for a single plate, 6 μl of the 100 mM ACh stock was diluted into 10 ml of 0.3% DMSO/external solution
Test compounds were prepared for a 6-point dose response from 0.03-10 μM. Working stocks were prepared from serial dilutions of 10 mM DMSO stock solutions to give a final DMSO concentration of 0.3%. 80 μl of the final concentration of each compound was added to the appropriate wells in an IonFlux^HT assay plate.
2×T175 flasks of α7/CHO cells (˜60-70% confluent) were washed twice with PBS and trypsinized (2 ml) for 3.5 minutes at 37° C./5% CO2. Cells were collected in F-12K complete media, counted and the number required for the assay was calculated, for example, 2×10^6 cells in a final volume of 670 μl of external solution were required to load one zone (one quarter) of an IonFlux^HT assay plate. The correct number of cells was pelleted by centrifuge, the supernatant was discarded and the cell pellet was resuspend in external solution at the required concentration so that cells were added in a volume of 80 μl per well to the IonFlux^HT assay plate.
Calculation of the Effect of Compounds on ACh Mediated Currents in α7 nAChRs:
The effect of test compounds on EC20 ACh-evoked currents was calculated by the formula: […]
The rinse protocol was the initial step in preparation of the IonFlux^HT plate. 80 μl of MilliQ water was added to every well (except Out wells) and the IonFlux^HT assay plate was run through the water rinse protocol on the machine. At the end of the run, the water was discarded from the wells. This action was repeated twice.
Briefly, to prepare the plate for the assay aliquots of cells, compounds and internal and external solutions were added to wells of the prepared IonFlux^HT plate (80 μl/well) (solutions made to manufacturer's specifications). Automated whole cell patch-clamp recordings were made using the standard IonFlux^HT single application protocol. Vacuum was held at 6 psi/hg throughout the experiment and membrane potential was held at −80 mV for 35 sec and then at −60 mV during data acquisition. Two ACh (EC20) pulses were applied at the beginning of the assay, 90 seconds apart, to provide an ACh baseline response then cells were perfused with modulators for 89 sec before ACh (EC20) was applied for 1 s. The calculation of percent potentiation of the acetylcholine response for each well was performed by the data analysis software supplied with the IonFlux^HT.
The following compounds were tested in accordance with the above-procedure for activity and the EC50 values determined are reported: […]
In general terms: Patch clamp records ionic current or voltage across a cell membrane.

T1 sequence (Q05941 23-502): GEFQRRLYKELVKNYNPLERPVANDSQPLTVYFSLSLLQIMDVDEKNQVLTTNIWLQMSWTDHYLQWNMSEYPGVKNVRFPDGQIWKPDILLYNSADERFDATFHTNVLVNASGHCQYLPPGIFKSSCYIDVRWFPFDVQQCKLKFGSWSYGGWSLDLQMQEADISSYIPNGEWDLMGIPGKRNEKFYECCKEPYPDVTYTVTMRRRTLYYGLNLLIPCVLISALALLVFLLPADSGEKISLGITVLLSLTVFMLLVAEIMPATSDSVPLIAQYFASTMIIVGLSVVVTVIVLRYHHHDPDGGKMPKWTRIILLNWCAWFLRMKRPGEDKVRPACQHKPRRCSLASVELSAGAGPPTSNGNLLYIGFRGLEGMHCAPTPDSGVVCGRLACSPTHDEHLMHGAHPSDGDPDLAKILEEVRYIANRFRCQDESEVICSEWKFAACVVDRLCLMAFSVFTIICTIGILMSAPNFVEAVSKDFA

A word on the EC50: it is the midpoint of the concentration-response curve. As usually defined, the melting point is the temperature, or range, at which the solid turns liquid. As to `COc1ccc(Cl)cc1OC[C@@H]1[C@@H](c2ccc(S(N)(=O)=O)cc2)C1(C)C` (racemic) [Exp. 1, ±trans 4-{3-[(5-chloro-2-methoxyphenoxy)methyl]-2,2-dimethylcyclopropyl}benzenesulfonamide], the melting point lay in the range of 158 to 160 °C. For the same molecule, the EC50 in series [1] was 0.105 µM. On the same counts, the results for `COc1ccc(Cl)cc1OC[C@@H]1[C@@H](c2ccc(S(N)(=O)=O)cc2)C12CCCC2` (racemic) [Exp. 2, ±trans 4-{2-[(5-chloro-2-methoxyphenoxy)methyl]spiro[2.4]hept-1-yl}benzenesulfonamide] are 56 to 58 °C and 0.143 µM. `COc1ccc(Cl)cc1CC[C@H]1[C@H](c2ccc(S(N)(=O)=O)cc2)C1(C)C` (single isomer, unassigned) [Exp. 52]: in series [1], the EC50 was determined as 0.054 µM. Still for that read-out and setting: the value for `COc1ccc(Cl)cc1OC[C@@H]1C[C@@H]1c1ccc(S(N)(=O)=O)cc1` (single isomer, unassigned) [Exp. 53] was 2.19 µM; that for `COc1ccc(Cl)cc1CC[C@@H]1[C@@H](c2ccc(S(N)(=O)=O)cc2)C1(C)C` (single isomer, unassigned) [Exp. 54] was 0.124 µM. On to `CC1(C)[C@H](COc2ccc(Cl)cn2)[C@H]1c1ccc(S(N)(=O)=O)cc1` (single isomer, unassigned) [Exp. 55], for which the EC50 in series [1] stood at 1.47 µM. On to `Cc1ncc(OC[C@H]2[C@H](c3ccc(S(N)(=O)=O)cc3)C2(C)C)cn1` (single isomer, unassigned) [Exp. 56], for which, in series [1], the EC50 was > 10 µM.

In the case of `CC1(C)[C@@H](COc2cncnc2)[C@@H]1c1ccc(S(N)(=O)=O)cc1` (single isomer, unassigned) [Exp. 57], the EC50 in series [1] is > 10 µM. Regarding `N#Cc1cc(F)ccc1OC[C@@H]1C[C@@H]1c1ccc(S(N)(=O)=O)cc1` (single isomer, unassigned) [Exp. 58], in series [1], the EC50 was > 10 µM.
